This is an account of results in BindingDB's records for patent US20240148821 (Chugai Seiyaku Kabushiki Kaisha, 2024).

Numbered stars: 1 amine (or outer) side, 2 acyl side, 3 side chain; on linkers, the order of the positions; unused ones are H or OH. Bridge positions count the residues as written; N and C are the ends. Square brackets hold non-standard residues; d marks the D form. Peptide text beside a SMILES is read from it. * marks the point of attachment. hPhe(3-Cl-4-CF3) = N[C@@H](CCc1ccc(C(F)(F)F)c(Cl)c1)C(=O)O; hPhe(3-F,4-CF3) = N[C@@H](CCc1ccc(C(F)(F)F)c(F)c1)C(=O)O; X123 = O=C([C@@H]1C[C@H](n2ccnn2)CN1[*:1])[*:2]; X31 = O=C([C@@H]1C[C@@H](n2ccnn2)CN1[*:1])[*:2]; NMeAla(cPent) = CN[C@@H](CC1CCCC1)C(=O)O; oXylylene = c1ccc(C[*:2])c(C[*:1])c1; NMeCha = CN[C@@H](CC1CCCCC1)C(=O)O; cisHyp = O=C(O)[C@@H]1C[C@H](O)CN1; Hyp = O=C(O)[C@@H]1C[C@@H](O)CN1; NMeD = CN[C@@H](CC(=O)O)C(=O)O; Benzyl(4-Cl) = Clc1ccc(C*)cc1; NMeL = CN[C@@H](CC(C)C)C(=O)O; NMeV = CN[C@H](C(=O)O)C(C)C; Piperidide = C1CCN(*)CC1; X57 = FC(F)Oc1ccc(C*)cc1; Ac5c = NC1(C(=O)O)CCCC1; X106 = Clc1cccc(C*)c1; X94 = COc1cccc(C*)c1; Meb = Cc1ccc(C*)cc1; X87 = Clc1ccccc1C*; Sar = CNCC(=O)O

The test addresses GTPase KRas (G12D) and Son of Sevenless Homolog 1 (SOS) (Homo sapiens, UniProt P01116, G12D). In words: AlphaScreen Assay. A general note: Alpha assays give light when donor and acceptor beads are brought close together.

Sequence of GTPase KRas (G12D) and Son of Sevenless Homolog 1 (SOS) (P01116 whole entry G12D): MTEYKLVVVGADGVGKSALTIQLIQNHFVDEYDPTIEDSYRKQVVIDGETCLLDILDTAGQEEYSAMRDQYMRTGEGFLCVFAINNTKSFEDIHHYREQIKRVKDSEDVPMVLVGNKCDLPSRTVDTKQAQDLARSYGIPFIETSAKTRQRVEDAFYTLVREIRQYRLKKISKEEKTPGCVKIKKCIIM
Sequence of GTPase KRas (G12D) and Son of Sevenless Homolog 1 (SOS) (Q07889 whole entry, further chain): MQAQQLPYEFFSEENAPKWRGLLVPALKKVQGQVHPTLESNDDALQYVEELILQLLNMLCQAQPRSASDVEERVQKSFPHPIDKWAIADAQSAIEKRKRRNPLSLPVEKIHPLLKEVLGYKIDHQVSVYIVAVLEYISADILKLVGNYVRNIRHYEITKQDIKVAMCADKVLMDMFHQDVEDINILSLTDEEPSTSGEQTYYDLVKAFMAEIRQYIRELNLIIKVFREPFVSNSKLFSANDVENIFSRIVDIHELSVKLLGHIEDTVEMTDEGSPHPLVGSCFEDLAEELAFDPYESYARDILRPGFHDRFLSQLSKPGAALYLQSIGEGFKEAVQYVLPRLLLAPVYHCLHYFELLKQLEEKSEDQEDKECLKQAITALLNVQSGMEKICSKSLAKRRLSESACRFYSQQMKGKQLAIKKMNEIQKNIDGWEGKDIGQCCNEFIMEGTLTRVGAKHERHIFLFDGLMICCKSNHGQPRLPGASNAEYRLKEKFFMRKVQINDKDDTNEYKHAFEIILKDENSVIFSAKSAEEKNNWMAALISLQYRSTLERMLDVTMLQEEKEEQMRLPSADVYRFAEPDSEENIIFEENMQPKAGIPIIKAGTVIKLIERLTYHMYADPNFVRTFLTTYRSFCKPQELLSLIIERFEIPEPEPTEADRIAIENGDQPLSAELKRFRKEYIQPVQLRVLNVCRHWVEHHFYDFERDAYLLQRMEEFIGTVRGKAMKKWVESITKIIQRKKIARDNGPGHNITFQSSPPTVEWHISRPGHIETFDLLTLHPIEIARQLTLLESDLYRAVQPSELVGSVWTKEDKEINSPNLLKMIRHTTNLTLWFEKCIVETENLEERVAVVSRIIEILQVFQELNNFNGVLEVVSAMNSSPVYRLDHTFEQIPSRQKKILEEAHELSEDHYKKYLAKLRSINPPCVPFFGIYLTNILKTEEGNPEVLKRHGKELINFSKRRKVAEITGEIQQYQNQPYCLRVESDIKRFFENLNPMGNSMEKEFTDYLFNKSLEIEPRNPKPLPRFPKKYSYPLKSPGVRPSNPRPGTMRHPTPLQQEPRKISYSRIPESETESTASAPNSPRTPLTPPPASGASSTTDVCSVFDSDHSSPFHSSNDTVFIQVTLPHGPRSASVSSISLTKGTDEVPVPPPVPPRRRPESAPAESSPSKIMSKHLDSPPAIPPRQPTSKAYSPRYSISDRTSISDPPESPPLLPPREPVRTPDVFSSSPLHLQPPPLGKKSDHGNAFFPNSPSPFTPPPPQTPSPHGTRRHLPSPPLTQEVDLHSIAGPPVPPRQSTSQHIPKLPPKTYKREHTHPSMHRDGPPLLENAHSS
Method: Protein-protein interaction inhibition (PPI) between Kras and SOS1 was measured by energy transfer from nickel-conjugated donor beads to streptavidin-conjugated acceptor beads using biotin-tagged human Kras expressed in E. coli and loaded with GDP after purification and His-tagged human SOS1 enzyme. This measurement utilizes the phenomenon in which donor beads are irradiated with light at 680 nm, such that energy is transferred to acceptor beads through singlet oxygen and light at 520-620 nm is detected from the acceptor beads.

Broadly, the IC50 is the concentration that gives 50% inhibition. A high value points to weaker potency in that assay. As for `CC[C@H](C)[C@@H]1NC(=O)[C@H](CC(C)C)N(C)C(=O)C[C@@H](C(=O)N2CCCCC2)N(C)C(=O)[C@H](C(C)C)N(C)C(=O)C2(CCCC2)NC(=O)[C@@H]2C[C@@H](n3ccnn3)CN2C(=O)[C@H](CCc2ccc(C(F)(F)F)c(Cl)c2)NC(=O)CN(C)C(=O)[C@H](CC2CCCC2)N(C)C(=O)CN(C)C(=O)CN(C)C1=O` [US20240148821, Compound 2113] ([NMeL]I[Sar][Sar][NMeAla(cPent)][Sar][hPhe(3-Cl-4-CF3)][X31][Ac5c][NMeV][NMeD]-Piperidide; lactam N-11), it took 0.47 nM to reach half-maximal inhibition (IC50).
In the case of `CC[C@H](C)[C@@H]1NC(=O)[C@H](CC(C)C)N(C)C(=O)C[C@@H](C(=O)N2CCCCC2)N(C)C(=O)[C@H](C(C)C)N(C)C(=O)C2(CCCC2)NC(=O)[C@@H]2C[C@H](n3ccnn3)CN2C(=O)[C@H](CCc2ccc(C(F)(F)F)c(Cl)c2)NC(=O)CN(C)C(=O)[C@H](CC2CCCC2)N(C)C(=O)CN(C)C(=O)CN(C)C1=O` [US20240148821, Compound 2115] ([NMeL]I[Sar][Sar][NMeAla(cPent)][Sar][hPhe(3-Cl-4-CF3)][X123][Ac5c][NMeV][NMeD]-Piperidide; lactam N-11), the IC50 worked out at 1.1 nM.
Consider `CCO[C@@H]1C[C@H]2C(=O)NC3(CCCC3)C(=O)N(C)[C@@H](CC(C)C)C(=O)N(C)[C@H](C(=O)N3CCCCC3)CC(=O)N(C)[C@@H](CC(C)C)C(=O)N[C@@H]([C@@H](C)CC)C(=O)N(C)CC(=O)N(C)CC(=O)N(C)[C@@H](CC3CCCCC3)C(=O)N(C)CC(=O)N[C@@H](CCc3ccc(C(F)(F)F)c(F)c3)C(=O)N2C1` [US20240148821, Compound 2118] ([NMeL]I[Sar][Sar][NMeCha][Sar][hPhe(3-F,4-CF3)][Hyp](Et)[Ac5c][NMeL][NMeD]-Piperidide; lactam N-11), for which the 50% inhibitory concentration (IC50) worked out at 3.2 nM.
Take `CC[C@H](C)[C@@H]1NC(=O)[C@H](CC(C)C)N(C)C(=O)C[C@@H](C(=O)N2CCCCC2)N(C)C(=O)[C@H](CC(C)C)N(C)C(=O)C2(CCCC2)NC(=O)[C@@H]2C[C@H](OCc3cccc(Cl)c3)CN2C(=O)[C@H](CCc2ccc(C(F)(F)F)c(F)c2)NC(=O)CN(C)C(=O)[C@H](CC2CCCCC2)N(C)C(=O)CN(C)C(=O)CN(C)C1=O` [US20240148821, Compound 2126] ([NMeL]I[Sar][Sar][NMeCha][Sar][hPhe(3-F,4-CF3)][cisHyp](X106)[Ac5c][NMeL][NMeD]-Piperidide; lactam N-11): the IC50 came to 37 nM.
With `CCO[C@H]1C[C@H]2C(=O)NC3(CCCC3)C(=O)N(C)[C@@H](CC(C)C)C(=O)N(C)[C@H](C(=O)N3CCCCC3)CC(=O)N(C)[C@@H](CC(C)C)C(=O)N[C@@H]([C@@H](C)CC)C(=O)N(C)CC(=O)N(C)CC(=O)N(C)[C@@H](CC3CCCCC3)C(=O)N(C)CC(=O)N[C@@H](CCc3ccc(C(F)(F)F)c(F)c3)C(=O)N2C1` [US20240148821, Compound 2127] ([NMeL]I[Sar][Sar][NMeCha][Sar][hPhe(3-F,4-CF3)][cisHyp](Et)[Ac5c][NMeL][NMeD]-Piperidide; lactam N-11) the figure was 4.5 nM; with `CC[C@H](C)[C@@H]1NC(=O)[C@H](CC(C)C)N(C)C(=O)C[C@@H](C(=O)N2CCCCC2)N(C)C(=O)[C@H](CC(C)C)N(C)C(=O)C2(CCCC2)NC(=O)[C@@H]2C[C@@H](OCc3ccc(OC(F)F)cc3)CN2C(=O)[C@H](CCc2ccc(C(F)(F)F)c(F)c2)NC(=O)CN(C)C(=O)[C@H](CC2CCCCC2)N(C)C(=O)CN(C)C(=O)CN(C)C1=O` [US20240148821, Compound 2128] ([NMeL]I[Sar][Sar][NMeCha][Sar][hPhe(3-F,4-CF3)][Hyp](X57)[Ac5c][NMeL][NMeD]-Piperidide; lactam N-11), 15 nM; with `CC[C@H](C)[C@@H]1NC(=O)[C@H](CC(C)C)N(C)C(=O)C[C@@H](C(=O)N2CCCCC2)N(C)C(=O)[C@H](CC(C)C)N(C)C(=O)C2(CCCC2)NC(=O)[C@@H]2C[C@H](OCc3ccc(Cl)cc3)CN2C(=O)[C@H](CCc2ccc(C(F)(F)F)c(F)c2)NC(=O)CN(C)C(=O)[C@H](CC2CCCCC2)N(C)C(=O)CN(C)C(=O)CN(C)C1=O` [US20240148821, Compound 2129] ([NMeL]I[Sar][Sar][NMeCha][Sar][hPhe(3-F,4-CF3)][cisHyp](Benzyl(4-Cl))[Ac5c][NMeL][NMeD]-Piperidide; lactam N-11), 46 nM.
With `CC[C@H](C)[C@@H]1NC(=O)[C@H](CC(C)C)N(C)C(=O)C[C@@H](C(=O)N2CCCCC2)N(C)C(=O)[C@H](CC(C)C)N(C)C(=O)C2(CCCC2)NC(=O)[C@@H]2C[C@@H](OCc3ccc(C)cc3)CN2C(=O)[C@H](CCc2ccc(C(F)(F)F)c(F)c2)NC(=O)CN(C)C(=O)[C@H](CC2CCCCC2)N(C)C(=O)CN(C)C(=O)CN(C)C1=O` [US20240148821, Compound 2130] ([NMeL]I[Sar][Sar][NMeCha][Sar][hPhe(3-F,4-CF3)][Hyp](Meb)[Ac5c][NMeL][NMeD]-Piperidide; lactam N-11), inhibition was half-maximal at 10 nM (IC50).
`CC[C@H](C)[C@@H]1NC(=O)[C@H](CC(C)C)N(C)C(=O)C[C@@H](C(=O)N2CCCCC2)N(C)C(=O)[C@H](CC(C)C)N(C)C(=O)C2(CCCC2)NC(=O)[C@@H]2C[C@@H](OCc3cccc(OC)c3)CN2C(=O)[C@H](CCc2ccc(C(F)(F)F)c(F)c2)NC(=O)CN(C)C(=O)[C@H](CC2CCCCC2)N(C)C(=O)CN(C)C(=O)CN(C)C1=O` [US20240148821, Compound 2131] ([NMeL]I[Sar][Sar][NMeCha][Sar][hPhe(3-F,4-CF3)][Hyp](X94)[Ac5c][NMeL][NMeD]-Piperidide; lactam N-11): the IC50 amounted to 9.8 nM.
With `CC[C@H](C)[C@@H]1NC(=O)[C@H](CC(C)C)N(C)C(=O)C[C@@H](C(=O)N2CCCCC2)N(C)C(=O)[C@H](CC(C)C)N(C)C(=O)C2(CCCC2)NC(=O)[C@@H]2C[C@H](OCc3ccccc3Cl)CN2C(=O)[C@H](CCc2ccc(C(F)(F)F)c(F)c2)NC(=O)CN(C)C(=O)[C@H](CC2CCCCC2)N(C)C(=O)CN(C)C(=O)CN(C)C1=O` [US20240148821, Compound 2132] ([NMeL]I[Sar][Sar][NMeCha][Sar][hPhe(3-F,4-CF3)][cisHyp](X87)[Ac5c][NMeL][NMeD]-Piperidide; lactam N-11) the figure was 91 nM.
On to `CC[C@H](C)[C@@H]1NC(=O)[C@H](CC(C)C)N(C)C(=O)C[C@@H](C(=O)N2CCCCC2)N(C)C(=O)[C@H](CC(C)C)N(C)C(=O)C2(CCCC2)NC(=O)[C@@H]2C[C@@H](OCc3ccc(Cl)cc3)CN2C(=O)[C@H](CCc2ccc(C(F)(F)F)c(F)c2)NC(=O)CN(C)C(=O)[C@H](CC2CCCCC2)N(C)C(=O)CN(C)C(=O)CN(C)C1=O` [US20240148821, Compound 2133] ([NMeL]I[Sar][Sar][NMeCha][Sar][hPhe(3-F,4-CF3)][Hyp](Benzyl(4-Cl))[Ac5c][NMeL][NMeD]-Piperidide; lactam N-11), for which the IC50 turned out to be 12 nM.
The result for `CC[C@H](C)[C@@H]1NC(=O)[C@H](CC(C)C)N(C)C(=O)C[C@@H](C(=O)N2CCCCC2)N(C)C(=O)[C@H](CC(C)C)N(C)C(=O)C2(CCCC2)NC(=O)[C@@H]2C[C@@H](OCc3cccc(Cl)c3)CN2C(=O)[C@H](CCc2ccc(C(F)(F)F)c(F)c2)NC(=O)CN(C)C(=O)[C@H](CC2CCCCC2)N(C)C(=O)CN(C)C(=O)CN(C)C1=O` [US20240148821, Compound 2134] ([NMeL]I[Sar][Sar][NMeCha][Sar][hPhe(3-F,4-CF3)][Hyp](X106)[Ac5c][NMeL][NMeD]-Piperidide; lactam N-11) reads 9.8 nM; that for `CC[C@H](C)[C@@H]1NC(=O)[C@H](CC(C)C)N(C)C(=O)C[C@@H](C(=O)N2CCCCC2)N(C)C(=O)[C@H](CC(C)C)N(C)C(=O)C2(CCCC2)NC(=O)[C@@H]2C[C@H](OCc3ccc(OC(F)F)cc3)CN2C(=O)[C@H](CCc2ccc(C(F)(F)F)c(F)c2)NC(=O)CN(C)C(=O)[C@H](CC2CCCCC2)N(C)C(=O)CN(C)C(=O)CN(C)C1=O` [US20240148821, Compound 2135] ([NMeL]I[Sar][Sar][NMeCha][Sar][hPhe(3-F,4-CF3)][cisHyp](X57)[Ac5c][NMeL][NMeD]-Piperidide; lactam N-11), 88 nM.
On to `CC[C@H](C)[C@@H]1NC(=O)[C@H](CC(C)C)N(C)C(=O)C[C@@H](C(=O)N2CCCCC2)N(C)C(=O)[C@H](CC(C)C)N(C)C(=O)C2(CCCC2)NC(=O)[C@@H]2C[C@H](OCc3cccc(OC)c3)CN2C(=O)[C@H](CCc2ccc(C(F)(F)F)c(F)c2)NC(=O)CN(C)C(=O)[C@H](CC2CCCCC2)N(C)C(=O)CN(C)C(=O)CN(C)C1=O` [US20240148821, Compound 2136] ([NMeL]I[Sar][Sar][NMeCha][Sar][hPhe(3-F,4-CF3)][cisHyp](X94)[Ac5c][NMeL][NMeD]-Piperidide; lactam N-11), for which the IC50 amounted to 39 nM.
The molecule `CC[C@H](C)[C@@H]1NC(=O)[C@H](CC(C)C)N(C)C(=O)C[C@@H](C(=O)N2CCCCC2)N(C)C(=O)[C@H](CC(C)C)N(C)C(=O)C2(CCCC2)NC(=O)[C@@H]2C[C@H](OCc3ccccc3C)CN2C(=O)[C@H](CCc2ccc(C(F)(F)F)c(F)c2)NC(=O)CN(C)C(=O)[C@H](CC2CCCCC2)N(C)C(=O)CN(C)C(=O)CN(C)C1=O` [US20240148821, Compound 2137] ([NMeL]I[Sar][Sar][NMeCha][Sar][hPhe(3-F,4-CF3)][cisHyp](oXylylene)[Ac5c][NMeL][NMeD]-Piperidide; lactam N-11) had an IC50 of 69 nM.
The result for `CC[C@H](C)[C@@H]1NC(=O)[C@H](CC(C)C)N(C)C(=O)C[C@@H](C(=O)N2CCCCC2)N(C)C(=O)[C@H](CC(C)C)N(C)C(=O)C2(CCCC2)NC(=O)[C@@H]2C[C@@H](OCc3ccccc3Cl)CN2C(=O)[C@H](CCc2ccc(C(F)(F)F)c(F)c2)NC(=O)CN(C)C(=O)[C@H](CC2CCCCC2)N(C)C(=O)CN(C)C(=O)CN(C)C1=O` [US20240148821, Compound 2138] ([NMeL]I[Sar][Sar][NMeCha][Sar][hPhe(3-F,4-CF3)][Hyp](X87)[Ac5c][NMeL][NMeD]-Piperidide; lactam N-11) reads 8.6 nM.
Molecule `CC[C@H](C)[C@@H]1NC(=O)[C@H](CC(C)C)N(C)C(=O)C[C@@H](C(=O)N2CCCCC2)N(C)C(=O)[C@H](CC(C)C)N(C)C(=O)C2(CCCC2)NC(=O)[C@@H]2C[C@@H](OCc3ccccc3C)CN2C(=O)[C@H](CCc2ccc(C(F)(F)F)c(F)c2)NC(=O)CN(C)C(=O)[C@H](CC2CCCCC2)N(C)C(=O)CN(C)C(=O)CN(C)C1=O` [US20240148821, Compound 2139] ([NMeL]I[Sar][Sar][NMeCha][Sar][hPhe(3-F,4-CF3)][Hyp](oXylylene)[Ac5c][NMeL][NMeD]-Piperidide; lactam N-11) registered an IC50 of 23 nM.
